Data: ChEMBL document CHEMBL3232928, “Fragment-to-hit-to-lead discovery of a novel pyridylurea scaffold of ATP competitive dual targeting type II topoisomerase inhibiting antibacterial agents” (J Med Chem, 2013)
Values after ≈ are worked out from the molar mass of the structure shown.

target: DNA gyrase subunit B (Staphylococcus aureus, UniProt P0A0K8); assay: Inhibition of ATPase activity in Staphylococcus aureus GyrB tetramer in presence of Escherichia coli GyrA by ammonium molybdate/malachite green-based absorbance assay; conditions: not given
Sequence (P0A0K8 whole entry): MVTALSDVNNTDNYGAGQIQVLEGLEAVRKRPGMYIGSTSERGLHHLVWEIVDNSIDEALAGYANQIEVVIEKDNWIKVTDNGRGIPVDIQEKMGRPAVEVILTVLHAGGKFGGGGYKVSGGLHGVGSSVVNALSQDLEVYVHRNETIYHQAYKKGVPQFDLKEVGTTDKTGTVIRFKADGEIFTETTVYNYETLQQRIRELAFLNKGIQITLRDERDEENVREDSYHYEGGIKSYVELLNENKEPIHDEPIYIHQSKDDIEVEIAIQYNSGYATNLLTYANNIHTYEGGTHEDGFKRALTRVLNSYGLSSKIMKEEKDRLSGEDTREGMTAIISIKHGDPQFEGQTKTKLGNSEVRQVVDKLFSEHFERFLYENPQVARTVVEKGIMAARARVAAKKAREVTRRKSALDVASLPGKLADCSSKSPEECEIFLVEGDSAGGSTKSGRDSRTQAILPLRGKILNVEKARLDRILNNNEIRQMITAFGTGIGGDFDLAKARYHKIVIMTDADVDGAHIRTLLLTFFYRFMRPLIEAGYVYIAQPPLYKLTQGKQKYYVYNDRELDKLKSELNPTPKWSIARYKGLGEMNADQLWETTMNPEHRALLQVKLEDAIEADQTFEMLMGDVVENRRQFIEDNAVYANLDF

SMILES | IC50 [nM]
CCNC(=O)Nc1cc(-c2nc(C(F)(F)F)cs2)c(-c2cncc(C(=O)O)c2)cn1 | < 10

system: not listed separately; assay: Inhibition of ATPase activity in Escherichia coli GyrA/GyrB by ammonium molybdate/malachite green-based absorbance assay; conditions: not given

SMILES | IC50 [nM]
CCNC(=O)Nc1cc(-c2nc(C(F)(F)F)cs2)c(-c2cncc(C(=O)O)c2)cn1 | < 10

system: not listed separately; assay: Inhibition of ATPase activity in Escherichia coli ParC/ParE by ammonium molybdate/malachite green-based absorbance assay; conditions: not given

SMILES | IC50 [nM]
CCNC(=O)Nc1cc(-c2nc(C(F)(F)F)cs2)c(-c2cncc(C(=O)O)c2)cn1 | 510

system: not listed separately; assay: Inhibition of ATPase activity in Escherichia coli ParE by ammonium molybdate/malachite green-based absorbance assay; conditions: not given

SMILES | IC50 [nM]
CCNC(=O)Nc1cc(-c2nc(C(F)(F)F)cs2)c(-c2cncc(C(=O)O)c2)cn1 | < 10

system: not listed separately; assay: Antibacterial activity against Streptococcus pneumoniae D39 NCTC 7466 assessed as growth inhibition after 18 to 24 hrs by CLSI broth microdilution method; assay type: functional; conditions: not given

SMILES | MIC [µg/mL]
CCNC(=O)Nc1cc(-c2nc(C(F)(F)F)cs2)c(-c2cncc(C(=O)O)c2)cn1 | 2 (≈ 4.57 µM)

system: Staphylococcus aureus; assay: Antibacterial activity against methicillin-sensitive wild type Staphylococcus aureus assessed as growth inhibition after 18 to 24 hrs by CLSI broth microdilution method; assay type: functional; conditions: not given

SMILES | MIC [µg/mL]
C[C@H]1COc2c(N3CCN(C)CC3)c(F)cc3c(=O)c(C(=O)O)cn1c23.C[C@H]1COc2c(N3CCN(C)CC3)c(F)cc3c(=O)c(C(=O)O)cn1c23.O [LEVOFLOXACIN] | 0.13
CCNC(=O)Nc1cc(-c2nc(C(F)(F)F)cs2)c(-c2cncc(C(=O)O)c2)cn1 | > 64

system: Staphylococcus aureus; assay: Antibacterial activity against methicillin-resistant and […] Staphylococcus aureus assessed as growth inhibition after 18 to 24 hrs by CLSI broth microdilution method; assay type: functional; conditions: not given

SMILES | MIC [µg/mL]
C[C@H]1COc2c(N3CCN(C)CC3)c(F)cc3c(=O)c(C(=O)O)cn1c23.C[C@H]1COc2c(N3CCN(C)CC3)c(F)cc3c(=O)c(C(=O)O)cn1c23.O [LEVOFLOXACIN] | 4

system: Moraxella catarrhalis; assay: Antibacterial activity against wild type Moraxella catarrhalis ATCC 43617 assessed as growth inhibition after 18 to 24 hrs by CLSI broth microdilution method; assay type: functional; conditions: not given

SMILES | MIC [µg/mL]
CCNC(=O)Nc1cc(-c2nc(C(F)(F)F)cs2)c(-c2cncc(C(=O)O)c2)cn1 | 64 (≈ 146 µM)

system: not listed separately; assay: Antibacterial activity against wild type Haemophilus influenzae Rd KW20 ATCC 51907 assessed as growth inhibition after 18 to 24 hrs by CLSI broth microdilution method; assay type: functional; conditions: not given

SMILES | MIC [µg/mL]
CCNC(=O)Nc1cc(-c2nc(C(F)(F)F)cs2)c(-c2cncc(C(=O)O)c2)cn1 | > 64

system: Escherichia coli; assay: Antibacterial activity against wild type Escherichia coli W3110 assessed as growth inhibition after 18 to 24 hrs by CLSI broth microdilution method; assay type: functional; conditions: not given

SMILES | MIC [µg/mL]
CCNC(=O)Nc1cc(-c2nc(C(F)(F)F)cs2)c(-c2cncc(C(=O)O)c2)cn1 | > 64

system: Escherichia coli; assay: Antibacterial activity against tolC efflux pump deficient Escherichia coli W3110 assessed as growth inhibition after 18 to 24 hrs by CLSI broth microdilution method; assay type: functional; conditions: not given

SMILES | MIC [µg/mL]
CCNC(=O)Nc1cc(-c2nc(C(F)(F)F)cs2)c(-c2cncc(C(=O)O)c2)cn1 | 16 (≈ 36.6 µM)

system: not listed separately; assay: Octanol-phosphate buffer partition coefficient, log D of the compound at pH 7.4 after 1 hr by shake flask method; assay type: physicochemical; conditions: not given

SMILES | logD at 1 h
CCNC(=O)Nc1cc(-c2nc(C(F)(F)F)cs2)c(-c2cncc(C(=O)O)c2)cn1 | -0.62

system: not listed separately; assay: Solubility of the compound; assay type: physicochemical; conditions: not given

SMILES | solubility [µM]
CCNC(=O)Nc1cc(-c2nc(C(F)(F)F)cs2)c(-c2cncc(C(=O)O)c2)cn1 | 800 (≈ 350 µg/mL)

system: not listed separately; assay: Unbound fraction in human at 10 uM after 16 hrs by LC-MS/MS analysis; assay type: ADME; conditions: plasma

SMILES | fraction unbound at 16 h, 10 µM
CCNC(=O)Nc1cc(-c2nc(C(F)(F)F)cs2)c(-c2cncc(C(=O)O)c2)cn1 | 0.082

system: not listed separately; assay: Dissociation constant, pKa of the compound; assay type: physicochemical; conditions: not given

SMILES | pKa
CCNC(=O)Nc1cc(-c2nc(C(F)(F)F)cs2)c(-c2cncc(C(=O)O)c2)cn1 | 3.7

system: not listed separately; assay: Antibacterial activity against fluoroquinolone-resistant Streptococcus pneumoniae D39 NCTC 7466 expressing ParE/GyrB T172A mutant assessed as growth inhibition after 18 to 24 hrs by CLSI broth microdilution method; assay type: functional; conditions: not given

SMILES | MIC [µg/mL]
C[C@H]1COc2c(N3CCN(C)CC3)c(F)cc3c(=O)c(C(=O)O)cn1c23.C[C@H]1COc2c(N3CCN(C)CC3)c(F)cc3c(=O)c(C(=O)O)cn1c23.O [LEVOFLOXACIN] | 0.5

system: not listed separately; assay: Antibacterial activity against fluoroquinolone-resistant Streptococcus pneumoniae D39 NCTC 7466 expressing ParE/GyrB K143I mutant assessed as growth inhibition after 18 to 24 hrs by CLSI broth microdilution method; assay type: functional; conditions: not given

SMILES | MIC [µg/mL]
C[C@H]1COc2c(N3CCN(C)CC3)c(F)cc3c(=O)c(C(=O)O)cn1c23.C[C@H]1COc2c(N3CCN(C)CC3)c(F)cc3c(=O)c(C(=O)O)cn1c23.O [LEVOFLOXACIN] | 1

system: not listed separately; assay: Antibacterial activity against fluoroquinolone-resistant Streptococcus pneumoniae D39 NCTC 7466 expressing GyrB/ParE T172A mutant assessed as growth inhibition after 18 to 24 hrs by CLSI broth microdilution method; assay type: functional; conditions: not given

SMILES | MIC [µg/mL]
C[C@H]1COc2c(N3CCN(C)CC3)c(F)cc3c(=O)c(C(=O)O)cn1c23.C[C@H]1COc2c(N3CCN(C)CC3)c(F)cc3c(=O)c(C(=O)O)cn1c23.O [LEVOFLOXACIN] | 1

system: not listed separately; assay: Antibacterial activity against fluoroquinolone-resistant Streptococcus pneumoniae D39 NCTC 7466 expressing GyrB T172A/ParE T172A double mutant assessed as growth inhibition after 18 to 24 hrs by CLSI broth microdilution method; assay type: functional; conditions: not given

SMILES | MIC [µg/mL]
C[C@H]1COc2c(N3CCN(C)CC3)c(F)cc3c(=O)c(C(=O)O)cn1c23.C[C@H]1COc2c(N3CCN(C)CC3)c(F)cc3c(=O)c(C(=O)O)cn1c23.O [LEVOFLOXACIN] | 0.5

system: not listed separately; assay: Antibacterial activity against fluoroquinolone-resistant Streptococcus pneumoniae D39 NCTC 7466 expressing GyrB K143A/ParE T172A double mutant assessed as growth inhibition after 18 to 24 hrs by CLSI broth microdilution method; assay type: functional; conditions: not given

SMILES | MIC [µg/mL]
C[C@H]1COc2c(N3CCN(C)CC3)c(F)cc3c(=O)c(C(=O)O)cn1c23.C[C@H]1COc2c(N3CCN(C)CC3)c(F)cc3c(=O)c(C(=O)O)cn1c23.O [LEVOFLOXACIN] | 0.5

system: not listed separately; assay: Antibacterial activity against fluoroquinolone-resistant Streptococcus pneumoniae D39 NCTC 7466 expressing GyrA S81F/ParC S79F double mutant assessed as growth inhibition after 18 to 24 hrs by CLSI broth microdilution method; assay type: functional; conditions: not given

SMILES | MIC [µg/mL]
C[C@H]1COc2c(N3CCN(C)CC3)c(F)cc3c(=O)c(C(=O)O)cn1c23.C[C@H]1COc2c(N3CCN(C)CC3)c(F)cc3c(=O)c(C(=O)O)cn1c23.O [LEVOFLOXACIN] | 16

system: not listed separately; assay: Antibacterial activity against fluoroquinolone-resistant Streptococcus pneumoniae D39 NCTC 7466 expressing GyrA S81Y/ParC S79F double mutant assessed as growth inhibition after 18 to 24 hrs by CLSI broth microdilution method; assay type: functional; conditions: not given

SMILES | MIC [µg/mL]
C[C@H]1COc2c(N3CCN(C)CC3)c(F)cc3c(=O)c(C(=O)O)cn1c23.C[C@H]1COc2c(N3CCN(C)CC3)c(F)cc3c(=O)c(C(=O)O)cn1c23.O [LEVOFLOXACIN] | 16

system: not listed separately; assay: Antibacterial activity against fluoroquinolone-resistant Streptococcus pneumoniae D39 NCTC 7466 expressing GyrA S81F/ParC S79Y double mutant assessed as growth inhibition after 18 to 24 hrs by CLSI broth microdilution method; assay type: functional; conditions: not given

SMILES | MIC [µg/mL]
C[C@H]1COc2c(N3CCN(C)CC3)c(F)cc3c(=O)c(C(=O)O)cn1c23.C[C@H]1COc2c(N3CCN(C)CC3)c(F)cc3c(=O)c(C(=O)O)cn1c23.O [LEVOFLOXACIN] | 32
